Entries after “also recorded” stand apart in the source; their conditions may differ. Read-outs that look alike come from different tables or passages of the source.
Details: for Major Organ Toxicity / Liver enzymes ALKP / Liver enzymes ALT / Liver enzymes AST / Liver enzymes LDH / Ulceration (Grade) Colon / Ulceration (Grade) Small Intestine / Ulceration (Grade) Stomach: 6 weeks, male C57 mice; for Liver enzymes ALKP / Liver enzymes ALT / Liver enzymes AST / Liver enzymes LDH: Mean ± SEM
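Further: gross examination of all organs at necropsy, with liver enzyme profile and GI ulceration assessed in collected tissues and blood.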

Procedure: Body weights and symptoms of toxicity were recorded twice weekly for 6 weeks. […] All organs were examined grossly for any abnormalities upon necropsy. Livers, kidney, stomach, intestinal tract, and blood were obtained from the animals and analyzed for Liver enzyme profile, GI ulceration, and levels of test agents.
All animals found dead will be necropsied to confirm that the most likely cause of death was due to intestinal ulcerations.

CCCCCCC(Sc1nc(Cl)cc(Nc2cccc(C)c2C)n1)C(=O)O (stereo not shown) [YS-121, reference compound]
Major Organ Toxicity (25 ppm in diet): None
Liver enzymes ALKP (25 ppm in diet): 183 ± 24 units/L
Liver enzymes ALT (25 ppm in diet): 81 ± 11 units/L
Liver enzymes AST (25 ppm in diet): 77 ± 8.6 units/L
Liver enzymes LDH (25 ppm in diet): 388 ± 29 units/L
Major Organ Toxicity (50 ppm in diet): None
Liver enzymes ALKP (50 ppm in diet): 198 ± 33 units/L
Liver enzymes ALT (50 ppm in diet): 96 ± 14 units/L
Liver enzymes AST (50 ppm in diet): 90 ± 7.8 units/L
Liver enzymes LDH (50 ppm in diet): 451 ± 38 units/L
toxicity (75 ppm and above dose levels in diet, mice): significant toxicity
Major Organ Toxicity (75 ppm in diet): Liver
Liver enzymes ALKP (75 ppm in diet): 358 ± 47 units/L
Liver enzymes ALT (75 ppm in diet): 147 ± 17 units/L
Liver enzymes AST (75 ppm in diet): 118 ± 18 units/L
Liver enzymes LDH (75 ppm in diet): 540 ± 51 units/L
Major Organ Toxicity (100 ppm in diet): Liver*
Ulceration (Grade) Colon (100 ppm in diet): Grade: 0, 1
Ulceration (Grade) Small Intestine (100 ppm in diet): Grade: 1
Ulceration (Grade) Stomach (100 ppm in diet): Grade: 2-3
Liver enzymes ALKP (100 ppm in diet): 477 ± 51 units/L
Liver enzymes ALT (100 ppm in diet): 194 ± 23 units/L
Liver enzymes AST (100 ppm in diet): 169 ± 29 units/L
Liver enzymes LDH (100 ppm in diet): 883 ± 68 units/L
Major Organ Toxicity (200 ppm in diet): Liver**; also recorded: Stomach
Ulceration (Grade) Colon (200 ppm in diet): Grade: 2
Ulceration (Grade) Small Intestine (200 ppm in diet): Grade: 4
Ulceration (Grade) Stomach (200 ppm in diet): Grade: 5

Source: patent US10206904B2, “Licofelone derivatives and methods of use” (The Board of Regents of the University of Oklahoma, priority 2015, dated 2019)
